Assay results reported in patent US20120156137A1, “COMPOSITION FOR TREATMENT OF ATOPIC DERMATITIS COMPRISING GLUCOSAMINE AND DERIVATIVES THEREOF AND A METHOD FOR TREATMENT OF ATOPIC DERMATITIS USING THEM” (priority 2006, published 2012).

Tests used:
[1] = system: TPA-induced mouse ear edema model; test: Anti-inflammatory activity of glucosamine topically applied to the TPA-induced mouse ear edema model; assay type: in vivo; settings: male ICR mice; topical 0.5%, 1% or 2% glucosamine 15 min and 6 hrs after TPA; read 24 hrs after TPA
Method: Ear edema was induced in mice using 12-O-tetradecanoylphorbol 13-acetate (TPA), as follows. TPA was prepared at 2.5[…]/20[…] in acetone. ICR mice were prepared one week before this test and allowed free access to food and water in order to minimize the stress of transport. 20[…] of the TPA solution was applied onto right ears of male ICR mice (7 weeks old). After 24 hrs, mice were sacrificed by cervical dislocation, and the right ears were punched using a 6-mm biopsy punch. The ear punches were weighed using a microbalance, finely teased, and subjected to a myeloperoxidase (MPO) assay. Thirty male ICR mice (7 weeks old, weighing 25-32 g) were divided into six groups, each of which consisted of five mice. Experimental animals were allowed free access to food and water for one week in order to minimize the stress of transport. Glucos amine and a control drug were diluted in sterile distilled water and then diluted 1:9 in acetone. Group 1 was not treated with TPA or any drug. Group 2 was treated with TPA alone on the right ear skin thereof. Group 3 was topically treated with TPA, and then with 20[…] of 0.5% glucosamine in sterile distilled water/acetone (1:9) 15 min and 6 hrs after TPA application. According to the same procedure as in Group 3, Group 4 was topically treated with 1% glucosamine, and Group 5 with 2% glucosamine. […]

transglutaminase = settings: as described in Korean Pat. Application No. 10-2006-56942; cited from earlier work
atopy patients = test: Clinical test for therapeutic effects of glucosamine on atopy; assay type: in vivo, human; settings: twenty atopy patients
Method: A clinical test was performed with twenty atopy patients in order to determine whether glucosamine has therapeutic effects on atopy in practice. The clinical test was conducted by the Department of Dermatology, Dongguk University Hospital (attending physician: A Y Lee; the clinical test was approved by an IRB of Dongguk University Hospital). Twenty atopy patients were dosed with glucosamine in the form of a tablet and a cream. In brief, glucosamine was orally administered at a daily dose of 500 mg for a period of two weeks. The cream (5% glucosamine) was topically applied to a desired site of the skin twice a day for a period of four weeks.

[2] = system: TPA-induced mouse ear edema model; test: Anti-inflammatory activity of glucosamine orally administered to the TPA-induced mouse ear edema model; assay type: in vivo; settings: male ICR mice; oral 5, 10 or 20 mg/kg glucosamine 15 min and 6 hrs after TPA; read 24 hrs after TPA
Method: Ear edema was induced in mice using 12-O-tetradecanoylphorbol 13-acetate (TPA), as follows. TPA was prepared at 2.5[…]/20[…] in acetone. ICR mice were prepared one week before this test and allowed free access to food and water in order to minimize the stress of transport. 20[…] of the TPA solution was applied onto right ears of male ICR mice (7 weeks old). After 24 hrs, mice were sacrificed by cervical dislocation, and the right ears were punched using a 6-mm biopsy punch. The ear punches were weighed using a microbalance, finely teased, and subjected to a myeloperoxidase (MPO) assay. Thirty five male ICR mice (7 weeks old, weighing 25-32 g) were divided into seven groups, each of which consisted of five mice. Experimental animals were allowed free access to food and water for one week in order to minimize the stress of transport. Glucosamine and a control drug were diluted in sterile physiological saline. Group 1 was not treated with TPA or any drug. Group 2 was treated with TPA alone on the right ear skin thereof. Group 3 was topically applied with TPA, and then orally administered through a sonde with 0.5 ml of glucosamine in sterile physiological saline 15 min and 6 hrs after TPA application. […]

## N[C@H]1C(O)O[C@H](CO)[C@@H](O)[C@@H]1O (some centres unmarked) [glucosamine]
[1]
  inhibition of acute inflammation (ear punch weight and MPO activity, FIGS. 1 and 2): inhibit acute inflammation regardless of concentrations thereof
transglutaminase
  inhibitory activity toward transglutaminase: has inhibitory activity toward transglutaminase
Atopy patients; cream (5% glucosamine) topically twice a day for four weeks
  therapeutic effects on atopy, external use (FIG. 5): significant therapeutic effects on atopy
Atopy patients; tablet, oral daily dose 500 mg for two weeks
  therapeutic effects on atopy, oral administration (FIG. 5): significant therapeutic effects on atopy
[2]
  inhibition of acute inflammation (ear punch weight and MPO activity, FIGS. 3 and 4): inhibited acute inflammation regardless of the concentration thereof
